# Earlier results, collected in patent US8618286B2, “Benzoxazines, benzothiazines, and related compounds having NOS inhibitory activity” (NeurAxon, Inc., priority 2008, dated 2013).
# What was measured:
# cardiogenic shock = details: human, randomized trial of 30 patients; reduced from 67%; cited from earlier work
# migraine = details: human, single i.v. administration; cited from earlier work
# persistent shock = details: human, up to 30 days; cited from earlier work
# migraine attack = details: human, open pilot study; cited from earlier work
smiles,measurement,setting,value
"COC(=O)[C@@H](N)CCCNC(=N)N[N+](=O)[O-] [L-NAME, N^G-Nitro-L-arginine methyl ester]",patient mortality,cardiogenic shock,27%
"CN=C(N)NCCC[C@H](N)C(=O)O.Cl [L-NMMA, L-N^G methylarginine hydrochloride]",response rate,migraine,67%
same,survival rate,persistent shock,72%
C/C1=C2/[N-][C@H]([C@H](CC(N)=O)[C@@]2(C)CCC(=O)NC[C@@H](C)OP(=O)([O-])O[C@H]2[C@@H](O)[C@@H](n3cnc4cc(C)c(C)cc43)O[C@@H]2CO)[C@]2(C)N=C(/C(C)=C3N=C(/C=C4N=C1[C@@H](CCC(N)=O)C\4(C)C)[C@@H](CCC(N)=O)[C@]\3(C)CC(N)=O)[C@@H](CCC(N)=O)[C@]2(C)CC(N)=O.[Co+3].[OH-] [hydroxycobalamin],patients with a reduction in the frequency of migraine attack of 50%,migraine attack,53%
